Measured values: patent publication US9783513B2, “STAT3 inhibitors and their anticancer use” (Ohio State Innovation Foundation, priority 2012, dated 2017)
“Also recorded” adds a separate entry of the source. Read-outs that look alike come from different tables or passages of the source.

What was measured:
[1] = test system: 96 human protein or lipid kinases; test: Kinase screening (KINOMESCAN), panel of 96 kinases; type: binding
Procedure: (§1) The potential off-target activity of a representative compound was assessed in a screen against 96 protein and lipid kinases (see FIGS. 56 and 60). The test compound, LY-5, was assessed at 1000 and 5000 nM concentration using in vitro kinase assays. The assays were carried out using standard techniques known to one skilled in the art (KINOMESCAN™, San Diego, Calif.). The data in FIG. 60 show the % inhibition for the tested concentrations of LY-5 in the panel of kinases assessed. The interaction map provides a visualization of the relationship of these inhibition data from FIG. 60 to various kinase families.

[2] = test system: HUVEC; test: HUVEC migration assays (wound-healing, Boyden chamber); type: cell-based, human; conditions: 300 nM, VEGF 10 ng/ml
Procedure: Endothelial cell (HUVEC) migration was monitored using the wound-healing assay described by Thaloor et al. (Cell Growth Differ. (1998) 9(4):305-12). Briefly, 3×10^4 cells/well were seeded in 24-well plates using M200 medium with LSGS. After cells had attached and formed a monolayer on plate completely, we scraped the cells with same width using yellow tip. After scraped, the cells were washed with PBS and incubated with the medium containing VEGF (10 ng/ml)) with or without LY5 (300 nM). Width was photographed at different time intervals (0 and 24 hours) with a magnification of 40× with a microscopic camera system (Leitz Diavert microscope, Leica, Bensheim; AxioCam, Carl Zeiss, Gottingen, Germany).
HUVECs were grown in M200 containing LSGS until 40-50% confluent. Cells were washed with PBS, trypsinized for 5-10 min, collected with 0.2% FBS and centrifuged at 300 g for 5 min. Cells were then resuspended with 0.2% FBS and counted using a Beckman Coulter Z2. A volume of 400 μl of this mix containing 5×10^5 cells was placed on to Boyden Chambers (8 μm pore) inserts with or without LY5 (300 nM) in 24 well plates with 500 μl of M200. VEGF (R and D Systems) in 1% BSA was added to a final concentration of 10 ng/ml in the lower chambers as a chemo-attractant. Cells were pretreated with antibody for 30 min in suspension, then placed in the chambers and incubated at 37° C. 5% C02 for 18-24 hrs. The Boyden chamber porous membranes were then blotted and fixed with 3.7% formaldehyde containing 0.05% crystal violet for 30 min. After repeated washes with distilled water the membranes were air-dried. […] The remainder of the cells on top of the membrane and within the Boyden chamber, were separately incubated in 80% methanol, shaken at 500 rpm for 30 min, and the extracted dye measured at 570 nm. Migration was quantified using the ratio of the migrated cells over the total cells (migrated plus remaining cells) to determine the fraction of migrating cells in each individual experiment. […]

[3] = test system: human sarcoma cell lines (RD2, RH30, U2OS); test: Cell viability (MTT) assay, different cell lines; type: cell-based; conditions: in different cell lines
Procedure: (§2) Human sarcoma cell lines (RD2, RH30, U2OS) were seeded in 96-well plates at a density of 3,000 cells per well. The cells were incubated at 37° C. for a period of 24 hours. Different concentrations of LY-5 (0.1-10 μM), LY-3 (0.1-20 μM), and LLL12 (0.1-10 μM) prepared as a 20 mM stock solution in sterile DMSO were added in triplicate to the plates in the presence of 10% FBS. 3-(4,5-Dimethylthiazolyl)-2, 5-diphenyltetrazoliumbromide (MTT) was added to evaluate cell viability. The absorbance was read at 595 nm. IC50 values were determined using SigmaPlot 9.0 Software (Systat Software, Inc., San Jose, Calif.).
(§3) Alternatively, cells were seeded in 96-well plates in triplicate at a density of 3,000 cells per well and given 24 hours to adhere. Cells were then treated with varying concentrations of the inhibitors in the presence of 10% FBS. The cells were incubated for 72 hours at 37° C. 25 μl of MTT dye (Sigma, #M5655) was added to each sample and incubated for 3.5 hours. After this, 100 μl of N,N-dimethylformamide (Sigma, #D4551) solubilization solution was added to each well. The absorbance at 450 nm was read the following day. Half-Maximal inhibitory concentrations (IC50) were determined using Sigma Plot 9.0 software (Systat Software Inc.).

[4] = molecular target: T1, PLK3 (Homo sapiens, UniProt Q9H4B4); test: Kinase screening (KINOMESCAN), PLK3; type: binding
T1 construct: purchased KINOMESCAN, San Diego, Calif
Procedure: as §1

[5] = test system: OSM induced STAT3 phosphorylation; test: Western blot, OSM induced STAT3 phosphorylation; type: cell-based, human
[6] = test system: HUVEC; test: Matrigel invasion assay; type: cell-based, human; conditions: 300 nM
Procedure: The Matrigel invasion assays were carried out using Matrigel precoated inserts (BD Bioscience) following the manufacturer's instructions. Six hundred μl of M200 medium with or without VEGF (20 ng/ml, R&D Systems) was placed in the lower wells. Proliferating HUVECs (4×10^5 cells/ml) were pretreated with LY5 (300 nM) and 100 μl of cell suspension was loaded into each of the upper wells. The chambers were incubated for 18-20 hr at 37° C. After incubation, the inserts were removed, and the non-invading cells on the upper surface were removed with a cotton swab. The cells on the lower surface of the membrane were fixed in 100% methanol for 15 minutes, air-dried, and stained with Diff-Quik stain for 2 min. The cells were counted in six individual high-power fields for each membrane condition under a light microscope. Assays were performed in triplicate for each treatment group and the results were expressed as migrated cells per field for each condition.

[7] = test system: human sarcoma cell line RH30; test: Cell viability (MTT) assay, RH30; type: cell-based
Procedure: as §2, §3
Table 7 below lists specific compounds as well as experimentally determined STAT3 activity in a cell-based assay. The STAT3 activity was determined using the cell viability assays with human sarcoma cell lines (RD2, RH30, U2OS) as described above. The compound reference numbers (“Ref. No.”) in Table 7 correspond to the compound numbers used in Table 3.

T1 sequence (Q9H4B4 whole entry): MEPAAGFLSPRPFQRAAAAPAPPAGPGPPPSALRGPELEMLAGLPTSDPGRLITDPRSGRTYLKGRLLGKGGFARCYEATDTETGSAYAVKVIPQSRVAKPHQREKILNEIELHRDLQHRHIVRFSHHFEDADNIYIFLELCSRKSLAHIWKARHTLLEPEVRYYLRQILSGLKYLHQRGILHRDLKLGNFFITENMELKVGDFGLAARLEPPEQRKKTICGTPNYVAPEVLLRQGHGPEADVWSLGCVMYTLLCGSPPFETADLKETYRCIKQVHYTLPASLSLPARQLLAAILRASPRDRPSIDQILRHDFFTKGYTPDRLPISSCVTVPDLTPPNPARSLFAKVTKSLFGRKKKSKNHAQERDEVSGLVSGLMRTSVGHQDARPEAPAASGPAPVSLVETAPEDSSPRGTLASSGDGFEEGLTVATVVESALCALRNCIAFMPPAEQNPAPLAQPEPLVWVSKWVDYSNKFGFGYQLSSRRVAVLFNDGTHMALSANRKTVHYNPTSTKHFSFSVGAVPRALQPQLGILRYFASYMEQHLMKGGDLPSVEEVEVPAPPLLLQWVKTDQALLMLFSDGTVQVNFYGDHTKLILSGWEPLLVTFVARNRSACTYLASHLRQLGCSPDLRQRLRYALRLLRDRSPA

With NS(=O)(=O)c1cccc2c1C(=O)C=C(Nc1cccnc1)C2=O [LY-5, 5,8-dioxo-6-(pyridin-3-ylamino)-5,8-dihydronaphthalene-1-sulfonamide] the “inhibitory binding to the active sites of 96 kinases” value ([1]; 1 μM drug concentration, FIG. 56) was “no apparent inhibitory binding”, the “inhibition of the panel of kinases” value ([1]; 1000 and 5000 nM) was “did not significantly inhibit; also recorded: no apparent activity” and the “VEGF induced HUVEC cell migration (wound width)” value [2] was “decreased cell migration”. For the same compound, the “percentage of migration (migrated cells over total cells)” value [2] was “decreased percentage of migration”, the “VEGF induced HUVEC cell migration (wound width)” value ([2]; listed as LY5) was “significantly blocked” and the IC50 [3] was 500 to 1400 nM. For the same compound, the inhibition ([4]; at 1000 nM) was “no inhibition”, the “activity against PLK3” value ([4]; at 5 μM, FIG. 60) was “some activity” and the inhibition at 5 µM ([4]; at 5000 nM) was 72%. For the same compound, the “OSM induced STAT3 phosphorylation” value ([5]; MCF-7, 1-2.5 μM, OSM 50 ng/mL) was “inhibit”, the “OSM induced STAT3 phosphorylation at Y705” value ([5]; SJSA, 0-2.5 μM, 3 h) was “inhibits” and the “HUVECs invasion through Matrigel coated membranes” value [6] was “prevented”. It also gave an IC50 ([7]; Table 7, read-out: IC50 RH30) of 550 nM and an IC50 ([7]; Table 8, read-out: IC50 values vs. cell lines, RH30) of 550 nM.
